Measurements taken from publication PMC6166654 (Leukemia, 2018).

Tests used:
[1] = system: TF1/SHP2^E69K cells; experiment: Cell growth in GM-CSF free medium; assay type: cell-based, human; conditions: read-out: cell growth IC50, 5 days
[2] = system: TF1/SHP2^A72V cells; experiment: Immunoblot analysis of cell lysates; assay type: cell-based, human; conditions: 2 days of SHP099 treatment
[3] = system: TF1/SHP2^E69K cells; experiment: Methylcellulose colony formation assay; assay type: cell-based, human; conditions: methylcellulose culture, 10 µM SHP099, day 7
[4] = system: TF1/SHP2^E76K cells; experiment: Methylcellulose colony formation assay; assay type: cell-based, human; conditions: methylcellulose culture, 10 µM SHP099, day 7
[5] = system: TF1/SHP2^D61Y cells; experiment: Immunoblot analysis of cell lysates; assay type: cell-based, human; conditions: 2 days of SHP099 treatment
[6] = system: TF1/SHP2^E69K cells; experiment: Immunoblot analysis of cell lysates; assay type: cell-based, human; conditions: 2 days of SHP099 treatment
[7] = system: MV4-11 cells; experiment: Immunoblot analysis of cell lysates; assay type: cell-based
[8] = system: TF-1 cells; experiment: Cell growth; assay type: cell-based, human; conditions: read-out: cell growth IC50, medium with GM-CSF, 5 days
[9] = system: TF-1 cells; experiment: Immunoblot analysis of cell lysates; assay type: cell-based, human
[10] = system: TF1/SHP2^E76K cells; experiment: Immunoblot analysis of cell lysates; assay type: cell-based, human; conditions: 2 days of SHP099 treatment
[11] = system: MV4-11 myeloid leukemia cells; experiment: Cell growth; assay type: cell-based; conditions: read-out: cell growth IC50; MV4-11 cells; 5 days
[12] = system: SHP2-knocked out TF-1 cell lines (TF1/KO1, TF1/KO2); experiment: Cell growth and cell lysate analysis in SHP2 knockout cells; assay type: cell-based, human; conditions: medium with GM-CSF

IC50 [11]: 320 ± 110 nM
SMILES: CC1(N)CCN(c2cnc(-c3cccc(Cl)c3Cl)c(N)n2)CC1 [SHP099]
IC50 [1]: 1460 ± 460 nM
Bcl-XL level [2]: little effect
PARP cleavage [2]: did not induce
pERK1/2 level [2]: little effect
GM-CSF hypersensitivity [3]: lost
cytokine-independent colonies [3]: eliminated
GM-CSF hypersensitivity [4]: did not affect
cytokine-independent colonies [4]: little effect
Bcl-XL level [5]: little effect
PARP cleavage [5]: did not induce
pERK1/2 level [5]: little effect
Bcl-XL level [6]: reduced
PARP cleavage [6]: induction
pERK1/2 level [6]: reduced
Bcl-XL level [7]: reduced
PARP cleavage [7]: induced
pERK1/2 level [7]: reduced
IC50 [8]: 1730 ± 520 nM
Bcl-XL level [9]: reduced
PARP cleavage [9]: induced
active ERK [9]: inhibited
Bcl-XL level [10]: little effect
PARP cleavage [10]: did not induce
pERK1/2 level [10]: little effect
effects in SHP2-knocked out TF-1 cell lines [12]: little effects
